The results in this text go back to patent US20070249639A1, “Use of 9H-Purine-2,6-Diamine Derivatives in the Treatment of Proliferative Diseases and Novel 9H-Purine-2,6-Diamine Derivatives” (priority 2004, published 2007).

SMILES strings stand for the structures.

The target of the assay is T1, human topoisomerase II α (Homo sapiens, UniProt P11388).
T1 construct: purchased Professor Neil Osheroff (Vanderbilt University, Nashville, Tenn., USA)
T1 sequence (P11388 whole entry): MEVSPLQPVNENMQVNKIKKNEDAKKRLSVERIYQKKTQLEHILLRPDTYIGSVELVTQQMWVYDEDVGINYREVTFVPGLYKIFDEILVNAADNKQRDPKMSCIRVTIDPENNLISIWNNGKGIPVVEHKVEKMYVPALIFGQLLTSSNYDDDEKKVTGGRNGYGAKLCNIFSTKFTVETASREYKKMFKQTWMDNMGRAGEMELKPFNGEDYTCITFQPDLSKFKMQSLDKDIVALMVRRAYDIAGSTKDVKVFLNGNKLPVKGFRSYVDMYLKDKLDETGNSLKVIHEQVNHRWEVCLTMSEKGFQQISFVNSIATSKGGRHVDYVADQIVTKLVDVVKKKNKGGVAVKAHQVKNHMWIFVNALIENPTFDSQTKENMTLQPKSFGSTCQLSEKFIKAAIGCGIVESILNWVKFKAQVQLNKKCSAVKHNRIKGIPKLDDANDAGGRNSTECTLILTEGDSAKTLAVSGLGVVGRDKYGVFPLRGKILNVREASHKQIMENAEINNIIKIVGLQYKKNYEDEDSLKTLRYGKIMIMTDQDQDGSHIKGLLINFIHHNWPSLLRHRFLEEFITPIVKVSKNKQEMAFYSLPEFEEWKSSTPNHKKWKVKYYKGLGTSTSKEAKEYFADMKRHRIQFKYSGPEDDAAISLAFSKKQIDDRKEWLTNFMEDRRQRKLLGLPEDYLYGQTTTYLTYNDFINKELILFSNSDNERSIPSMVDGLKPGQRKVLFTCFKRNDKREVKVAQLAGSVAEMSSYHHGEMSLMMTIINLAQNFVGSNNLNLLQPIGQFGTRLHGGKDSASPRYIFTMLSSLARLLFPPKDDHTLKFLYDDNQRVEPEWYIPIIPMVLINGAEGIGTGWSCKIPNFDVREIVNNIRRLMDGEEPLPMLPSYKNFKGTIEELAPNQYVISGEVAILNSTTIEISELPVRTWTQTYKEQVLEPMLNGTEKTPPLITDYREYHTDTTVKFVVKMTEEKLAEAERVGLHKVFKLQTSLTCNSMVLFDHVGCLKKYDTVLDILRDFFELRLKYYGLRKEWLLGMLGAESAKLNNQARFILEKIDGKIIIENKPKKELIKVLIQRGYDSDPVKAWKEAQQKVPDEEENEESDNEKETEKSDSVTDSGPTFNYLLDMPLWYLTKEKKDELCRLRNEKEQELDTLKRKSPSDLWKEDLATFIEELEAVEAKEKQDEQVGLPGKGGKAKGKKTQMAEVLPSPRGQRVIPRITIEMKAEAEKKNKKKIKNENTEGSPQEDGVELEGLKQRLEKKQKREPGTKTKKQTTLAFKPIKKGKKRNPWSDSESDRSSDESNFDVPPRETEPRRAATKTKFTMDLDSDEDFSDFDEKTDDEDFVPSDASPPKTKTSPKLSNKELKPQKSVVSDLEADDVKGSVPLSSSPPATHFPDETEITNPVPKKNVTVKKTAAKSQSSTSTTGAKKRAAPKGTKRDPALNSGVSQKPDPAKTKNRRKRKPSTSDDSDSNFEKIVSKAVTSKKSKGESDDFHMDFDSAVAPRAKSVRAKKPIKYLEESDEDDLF
Kind of assay: Topoisomerase II ATPase assay (Malachite Green). The format is biochemical. As to conditions: Percent inhibition @10 μM, Malachite Green assay; read-out: TOPO II inh. (inhibition of the TOPO ATPase activity). As for the experimental part: The inhibition of topoisomerase II is measured as follows:
Purified human topoisomerase II α was purchased from Professor Neil Osheroff (Vanderbilt University—Nashville, Tenn., USA).
The pUC18 (Stratagene) plasmid was introduced into Escherichia coil XL-1 (Stratagene) and purified with the HiSpeed Plasmid Purification kit (Qiagen) according to the manufacturer instructions. The purity of the DNA preparations was evaluated spectrophotometrically (OD260/OD280 ratio) and by agarose gel.
Preparation of the Malachite Green Reagent:
Three volumes of 0.045% malachite green (Sigma, catalog no. M-9636) diluted in water are mixed for 20 min at room temperature with one volume of 4.2% ammonium molybdate (Axon Lab AG, catalog no. A-2246) diluted in 4 N HCl. After mixing, Triton X-100 (Merck, catalog no. 1.12298) is added to a final concentration of 0.01%. The solution is filtered at 0.2 μm and stored at room temperature in the dark.
ATP hydrolysis was monitored by measuring the production of inorganic phosphate released during the catalytic cycle of topoisomerase II α with acidic molybdate and malachite green (Lanzetta,et al., An improved assay for nanomole amounts of inorganic phosphate, Anal Biochem 1979;100:95-7). Briefly, human topoisomerase II α is pre-incubated at 37° C. for 10 min in 90 μl reaction buffer (10 mM Tris.HCl pH 7.9, 175 mM KCl, 1 mM EDTA, 2 mM DTT, 5 mM MgCl2, 2.5% glycerol) in the presence of the indicated amount of pUC18 and DMSO in F96 maxisorp Nunclmmuno plates (Nunc). The reaction is initiated by the addition of 10 μl ATP at the indicated concentrations and is carried out for 30 min at 37° C. under constant agitation. The reaction is stopped by the addition of 200 μl molybdate/malachite green solution and the absorbance is immediately measured at 630 nm. The OD630 value is measured in the absence of protein for each ATP concentration (background) is subtracted from the value obtained in the presence of enzyme. A standard curve with inorganic phosphate is used to determine the amount of inorganic phosphate produced during the reaction and to ensure that the measures are in the linear range of the assay. The kinetic parameters of the enzymes are determined from measurements (at least in duplicate) of the initial rates at different ATP concentrations. The data are analyzed with GraFit (Erithacus Software).
The compounds are tested at 10 μM of concentration to determine their inhibition potential given % of inhibition of the TOPO II ATPase activity.
For the determination of the IC50, the procedure is repeated for different concentrations of test compound selected to cover the range of 0% to 100% inhibition and the concentration at which 50% inhibition of topoisomerase II occurs (IC50) for each compound is determined from concentration-inhibition curves in a conventional manner.
In the case of `C=C(C=Cc1nc(OCCN2CCOCC2)sc1C)Nc1nc(NC(C)(C)C)c2nc(C(C)C)[nH]c2n1` [Example 38, N*6*-tert-Butyl-8-isopropyl-N*2*-{1-methylene-3-[5-methyl-2-(2-morpholin-4-yl-ethoxy)-thiazol-4-yl]-allyl}-9H-purine-2,6-diamine], the inhibition – broadly, the drop in the measured response relative to a control, in per cent – at 10 µM is less than 50%.
Take `C=C(C=Cc1nc(OCCN2CCOCC2)sc1C)Nc1nc(NC(C)(C)C)c2nc(C3CC3)[nH]c2n1` [Example 39, N*6*-tert-Butyl-8-cyclopropyl-N*2*-{1-methylene-3-[5-methyl-2-(2-morpholin-4-yl-ethoxy)-thiazol-4-yl]-allyl}-9H-purine-2,6-diamine]: the inhibition at 10 µM fell in the range of 65 to 80%.
As to `C=C(C=Cc1nc(OCCN2CCOCC2)sc1C)Nc1nc(NC(C)(C)C)c2nc(C3CCCC3)[nH]c2n1` [Example 40, N*6*-tert-Butyl-8-cyclopentyl-N*2*-{1-methylene-3-[5-methyl-2-(2-morpholin-4-yl-ethoxy)-thiazol-4-yl]-allyl}-9H-purine-2,6-diamine], the inhibition at 10 µM is 0%.
For the molecule `CC(C)(C)Nc1nc(Nc2ccc3ncsc3c2)nc2[nH]c(C3CC3)nc12` [Example 41, N*2*-Benzothiazol-6-yl-N*6*-tert-butyl-8-cyclopropyl-9H-purine-2,6-diamine], the inhibition at 10 µM lay in the range of 65 to 80%.
The figure for `CC(C)(C)Nc1nc(Nc2ccc3ncsc3c2)nc2[nH]c(N)nc12` [Example 42, N*2*-Benzothiazol-6-yl-N*6*-tert-butyl-9H-purine-2,6,8-triamine] is 65 to 80%.
Consider `CC(C)(C)Nc1nc(Nc2ccc3ccccc3c2)nc2[nH]c(N)nc12` [Example 43, N*6*-tert-Butyl-N*2*-naphthalen-2-yl-9H-purine-2,6,8-triamine], for which the inhibition at 10 µM fell in the range of 65 to 80%.
Under `CNc1nc2c(NC(C)(C)C)nc(Nc3ccc4ccccc4c3)nc2[nH]1` [Example 44, N*6*-tert-Butyl-N*8*-methyl-N*2*-naphthalen-2-yl-9H-purine-2,6,8-triamine] stands 65 to 80%; under `CC(=O)c1nc2c(NC(C)(C)C)nc(Nc3ccc4ncsc4c3)nc2[nH]1` [Example 45, 1-[2-(Benzothiazol-6-ylamino)-6-tert-butylamino-9H-purin-8-yl]-ethanone], less than 50%.
As for `CC(C)(C)Nc1nc(Nc2ccc3ncccc3c2)nc2[nH]cnc12` [Example 46, N*6*-tert-Butyl-N*2*-quinolin-6-yl-9H-purine-2,6-diamine], the inhibition at 10 µM was 50 to 65%.
For `CC(C)(C)Nc1nc(Nc2ccc3nsnc3c2)nc2[nH]cnc12` [Example 47, N*2*-Benzo[1,2,5]thiadiazol-5-yl-N*6*-tert-butyl-9H-purine-2,6-diamine], the inhibition at 10 µM is less than 50%.
Turning to `c1nc2c(NC3CCCCCC3)nc(Nc3ccc4nsnc4c3)nc2[nH]1` [Example 49, N*2*-Benzo[1,2,5]thiadiazol-5-yl-N*6*-cycloheptyl-9H-purine-2,6-diamine], the inhibition at 10 µM was less than 50%.
As for `Cc1nc2ccc(Nc3nc(NC4CCCCCC4)c4nc[nH]c4n3)cc2s1` [Example 50, N*6*-Cycloheptyl-N*2*-(2-methyl-benzothiazol-6-yl)-9H-purine-2,6-diamine], the inhibition at 10 µM was in the range of 50 to 65%.
For `CCC(C)(C)Nc1nc(Nc2ccc3ncsc3c2)nc2[nH]cnc12` [Example 51, N*2*-Benzothiazol-6-yl-N*6*-(1,1-dimethyl-propyl)-9H-purine-2,6-diamine], the inhibition at 10 µM fell in the range of 50 to 65%.
`CCC(C)(C)Nc1nc(Nc2ccc3ncccc3c2)nc2[nH]cnc12` [Example 52, N*6*-(1,1-Dimethyl-propyl)-N*2*-quinolin-6-yl-9H-purine-2,6-diamine]: the inhibition at 10 µM was less than 50%.
Turning to `CCC(C)(C)Nc1nc(Nc2ccc3nsnc3c2)nc2[nH]cnc12` [Example 53, N*2*-Benzo[1,2,5]thiadiazol-5-yl-N*6*-(1,1-dimethyl-propyl)-9H-purine-2,6-diamine], the inhibition at 10 µM was less than 50%.
With `CCC(C)(C)Nc1nc(Nc2ccc3nc(C)sc3c2)nc2[nH]cnc12` [Example 54, N*6*-(1,1-Dimethyl-propyl)-N*2*-(2-methyl-benzothiazol-6-yl)-9H-purine-2,6-diamine], the inhibition at 10 µM is less than 50%.
On to `CC(C)(Cc1ccc(F)cc1)Nc1nc(Nc2ccc3ncsc3c2)nc2[nH]cnc12` [Example 55, N*2*-Benzothiazol-6-yl-N*6*-[2-(4-fluoro-phenyl)-1,1-dimethyl-ethyl]-9H-purine-2,6-diamine], for which the inhibition at 10 µM was less than 50%.
Turning to `CC(C)(Cc1ccc(F)cc1)Nc1nc(Nc2ccc3ncccc3c2)nc2[nH]cnc12` [Example 56, N*6*-[2-(4-Fluoro-phenyl)-1,1-dimethyl-ethyl]-N*2*-quinolin-6-yl-9H-purine-2,6-diamine], the inhibition at 10 µM was less than 50%.
With `CC(C)(Cc1ccc(F)cc1)Nc1nc(Nc2ccc3nsnc3c2)nc2[nH]cnc12` [Example 57, N*2*-Benzo[1,2,5]thiadiazol-5-yl-N*6*-[2-(4-fluoro-phenyl)-1,1-dimethyl-ethyl]-9H-purine-2,6-diamine], the inhibition at 10 µM was less than 50%.
The figure for `Cc1nc2ccc(Nc3nc(NC(C)(C)Cc4ccc(F)cc4)c4nc[nH]c4n3)cc2s1` [Example 58, N*6*-[2-(4-Fluoro-phenyl)-1,1-dimethyl-ethyl]-N*2*-(2-methyl-benzothiazol-6-yl)-9H-purine-2,6-diamine] is less than 50%; for `c1cncc(N2CCN(c3nc(Nc4ccc5ncsc5c4)nc4[nH]cnc34)CC2)c1` [Example 59, Benzothiazol-6-yl-[6-(4-pyridin-3-yl-piperazin-1-yl)-9H-purin-2-yl]-amine] it is less than 50%.
For the molecule `c1ccc(N2CCN(c3nc(Nc4ccc5ncsc5c4)nc4[nH]cnc34)CC2)nc1` [Example 60, Benzothiazol-6-yl-[6-(4-pyridin-2-yl-piperazin-1-yl)-9H-purin-2-yl]-amine], the inhibition at 10 µM is less than 50%.
Consider `c1ccc(N2CCN(c3nc(Nc4ccc5ncccc5c4)nc4[nH]cnc34)CC2)nc1` [Example 61, [6-(4-Pyridin-2-yl-piperazin-1-yl)-9H-purin-2-yl]-quinolin-6-yl-amine], for which the inhibition at 10 µM was less than 50%.
For `c1ccc(N2CCN(c3nc(Nc4ccc5nsnc5c4)nc4[nH]cnc34)CC2)nc1` [Example 62, Benzo[1,2,5]thiadiazol-5-yl-[6-(4-pyridin-2-yl-piperazin-1-yl)-9H-purin-2-yl]-amine], the inhibition at 10 µM was less than 50%.
On to `Cc1nc2ccc(Nc3nc(N4CCN(c5ccccn5)CC4)c4nc[nH]c4n3)cc2s1` [Example 63, (2-Methyl-benzothiazol-6-yl)-[6-(4-pyridin-2-yl-piperazin-1-yl)-9H-purin-2-yl]-amine], for which the inhibition at 10 µM was less than 50%.
Under `c1cnc2ccc(Nc3nc(N4CCN(c5cnccn5)CC4)c4nc[nH]c4n3)cc2c1` [Example 64, Quinolin-6-yl-[6-(2,3,5,6-tetrahydro-[1,2′]bipyrazinyl-4-yl)-9H-purin-2-yl]-amine] stands less than 50%; under `CC(C)(C)Nc1nc(Nc2ccc3ncsc3c2)nc2[nH]cnc12` [Example 65, N*2*-Benzothiazol-6-yl-N*6*-tert-butyl-9H-purine-2,6-diamine], 50 to 65%; under `c1nc2c(NC3CCCCCC3)nc(Nc3ccc4ncsc4c3)nc2[nH]1` [Example 66, N*2*-Benzothiazol-6-yl-N*6*-cycloheptyl-9H-purine-2,6-diamine], less than 50%.
For the molecule `c1cnc2ccc(Nc3nc(NC4CCCCCC4)c4nc[nH]c4n3)cc2c1` [Example 67, N*6*-Cycloheptyl-N*2*-quinolin-6-yl-9H-purine-2,6-diamine], the inhibition at 10 µM is less than 50%.
The figure for `CC(C)(CO)Nc1nc(Nc2ccc3ncsc3c2)nc2[nH]cnc12` [Example 68, 2-[2-(Benzothiazol-6-ylamino)-9H-purin-6-ylamino]-2-methyl-propan-1-ol] is less than 50%; for `CC(C)(C)Nc1nc(Nc2ccc3ccccc3c2)nc2[nH]c(Br)nc12` [Example 69, 8-Bromo-N*6*-tert-butyl-N*2*-naphthalen-2-yl-9H-purine-2,6-diamine] it is 50 to 65%.
Under `C=Cc1nc2c(NC(C)(C)C)nc(Nc3ccc4ccccc4c3)nc2[nH]1` [Example 70, N*6*-tert-Butyl-N*2*-naphthalen-2-yl-8-vinyl-9H-purine-2,6-diamine] stands less than 50%.
